Laboratory results: article PMC8964499, “An Efficient Approach for the Design and Synthesis of Antimicrobial Peptide-Peptide Nucleic Acid Conjugates” (Frontiers in Chemistry, 2022)
Where “and” joins values, the source holds several entries; their conditions need not be identical. Identical values can stand only once. Non-standard residues stand in square brackets, D forms with d. Residues, ends and D or L forms follow the SMILES beside them. *: point of attachment. X1 = N#Cc1cc(C(=O)*)ccn1; AEEA = NCCOCCOCC(=O)O; Ahx = NCCCCCC(=O)O

What was measured:
A. baumannii 5075R = settings: polymyxin-resistant isolate; disc diffusion (EUCAST), 40 μM per disk, inoculum McFarland 0.5 (~10^8 CFU/ml), 18 h at 37°C; volume per disk corrected by Mw equivalent to 40 ug of LASP-072
Experimental: (§1) According to the EUCAST guidelines ([Eucast, E.C.O.a.S.T., 2021]), the inoculum was standardized in sterile saline to the density of a McFarland 0.50 ± 0.02 standard, corresponding to ∼10^8 CFU/ml of each isolate. The freshly prepared bacterial suspension was evenly inoculated onto agar plates and disks containing 40 μM of peptide-PNA conjugates were applied within 15 min. The diameter of inhibition zones was measured after incubation for 18 h at 37°C. Polymyxin B (40 μM/disk) was employed as the control.
(§2) The selected peptide sequences are known for their antimicrobial activity ([Le et al., 2017]). Therefore, we evaluated the antimicrobial activity of synthesized peptide-PNA conjugates using the Disc Diffusion Assay (DDA) against a panel of MDR Gram-negative bacteria consisting of P. aeruginosa, A. baumannii, K. pneumoniae, E. coli, including the isolates highly polymyxin-resistant A. baumannii 5075R, and A. baumannii 5075D (Figure 4 and Supplementary Table S1). […] During the synthesis of the next set of peptide-PNA conjugates, we switched the direction of the conjugation handles to investigate the impact on the efficiency of conjugation. […]
Figure S12: The inhibition zone (mm) of all peptides, PNA and peptide-PNA conjugates
against A. baumannii 5075R at a concentration of 40 μM.

[1] = system: Klebsiella pneumoniae ATCC 700721; settings: disc diffusion (EUCAST), 40 μM per disk, inoculum McFarland 0.5 (~10^8 CFU/ml), 18 h at 37°C; volume per disk corrected by Mw equivalent to 40 ug of LASP-072
Experimental: as §1, §2
Figure S9: The inhibition zone (mm) of all peptides, PNA and peptide-PNA conjugates
against Klebsiella pneumoniae ATCC 700721 at a concentration of 40 μM.

A. baumannii 5075D = type: cell-based, Acinetobacter baumannii; settings: polymyxin-dependent resistant isolate; disc diffusion (EUCAST), 40 μM per disk, inoculum McFarland 0.5 (~10^8 CFU/ml), 18 h at 37°C; volume per disk corrected by Mw equivalent to 40 ug of LASP-072
Experimental: as §1
(§3) The selected peptide sequences are known for their antimicrobial activity ([Le et al., 2017]). Therefore, we evaluated the antimicrobial activity of synthesized peptide-PNA conjugates using the Disc Diffusion Assay (DDA) against a panel of MDR Gram-negative bacteria consisting of P. aeruginosa, A. baumannii, K. pneumoniae, E. coli, including the isolates highly polymyxin-resistant A. baumannii 5075R, and A. baumannii 5075D (Figure 4 and Supplementary Table S1). […] Therefore, we further synthesized 10-mer PNAs targeting four bacterial essential genes anti-rpoA LASP-095 ([Abushahba et al., 2016]), anti-murA LASP-096 ([Goh et al., 2009]; [Mondhe et al., 2014]), anti-acpP LASP-097 ([Hansen et al., 2016]), and anti-rpoD LASP-119 ([Bai et al., 2012]; [Alajlouni and Seleem, 2013]). During the synthesis of the next set of peptide-PNA conjugates, we switched the direction of the conjugation handles to investigate the impact on the efficiency of conjugation. Here, PNAs were synthesized with an N-terminal CINA moiety (LASP-095, 096, 097 and 119, Table 1) and a polymyxin analogue (LASP-072, Table 1) was synthesized containing an N-terminal cysteine residue (Supplementary Figure S3).
Table S1: Inhibition zone (mm) for peptide, PNA, and peptide-PNA conjugates
Zone of inhibition diameter (mm)
Mw equivalent Pa Ab Kp Ab Ab

A. baumannii ATCC 17978 = settings: disc diffusion (EUCAST), 40 μM per disk, inoculum McFarland 0.5 (~10^8 CFU/ml), 18 h at 37°C; volume per disk corrected by Mw equivalent to 40 ug of LASP-072
Experimental: as §1, §2
Figure S8: The inhibition zone (mm) of all peptides, PNA and peptide-PNA conjugates
against A. baumannii ATCC 17978 at a concentration of 40 μM. […]

P. aeruginosa ATCC 27853 = settings: disc diffusion (EUCAST), 40 μM per disk, inoculum McFarland 0.5 (~10^8 CFU/ml), 18 h at 37°C; volume per disk corrected by Mw equivalent to 40 ug of LASP-072
Experimental: as §1
(§4) The selected peptide sequences are known for their antimicrobial activity ([Le et al., 2017]). Therefore, we evaluated the antimicrobial activity of synthesized peptide-PNA conjugates using the Disc Diffusion Assay (DDA) against a panel of MDR Gram-negative bacteria consisting of P. aeruginosa, A. baumannii, K. pneumoniae, E. coli, including the isolates highly polymyxin-resistant A. baumannii 5075R, and A. baumannii 5075D (Figure 4 and Supplementary Table S1). […] During the synthesis of the next set of peptide-PNA conjugates, we switched the direction of the conjugation handles to investigate the impact on the efficiency of conjugation.
Figure S7: The inhibition zone (mm) of all peptides, PNA and peptide-PNA conjugates
against P. aeruginosa ATCC 27853 at a concentration of 40 μM. […]

E. coli DH5α = settings: disc diffusion (EUCAST), 40 μM per disk, inoculum McFarland 0.5 (~10^8 CFU/ml), 18 h at 37°C; volume per disk corrected by Mw equivalent to 40 ug of LASP-072
Experimental: as §1, §4
Figure S10: The inhibition zone (mm) of all peptides, PNA and peptide-PNA conjugates
against E. coli DH5α at a concentration of 40 μM. […]

A. baumannii 5075 = settings: 40 μM per disk; for Zone of inhibition diameter, Ab 5075: disc diffusion (EUCAST), inoculum McFarland 0.5 (~10^8 CFU/ml), 18 h at 37°C, volume per disk corrected by Mw equivalent to 40 ug of LASP-072
Experimental: as §1, §2
Figure S11: The inhibition zone (mm) of all peptides, PNA and peptide-PNA conjugates
against A. baumannii 5075 at a concentration of 40 μM. […]

[2] = system: panel of MDR Gram-negative bacteria consisting of P. aeruginosa, A. baumannii, K. pneumoniae, E. coli; assay: Disc diffusion assay, statements for the whole panel; type: cell-based; settings: 40 μM per disk, 18 h at 37°C, statement of the text for the whole panel
Experimental: as §1, §3

Compound	Zone of inhibition diameter, Ab 5075 R (A. baumannii 5075R) [mm]	Zone of inhibition diameter, Kp ATCC 700721 [1] [mm]	Zone of inhibition diameter, Ab 5075 D (A. baumannii 5075D)	Zone of inhibition diameter, Ab ATCC 17978 (A. baumannii ATCC 17978) [mm]	Zone of inhibition diameter, Pa ATCC 27853 (P. aeruginosa ATCC 27853) [mm]	Zone of inhibition diameter, E. coli DH5α (E. coli DH5α) [mm]	Zone of inhibition diameter, Ab 5075 (A. baumannii 5075)	Bacterial growth in the presence of the conjugate (polymyxin-dependent phenotype) (A. baumannii 5075; disc diffusion, result in words)	Diameter of inhibition zones over the panel of bacteria [2]
N#Cc1cc(C(=O)NCCCC[C@H](NC(=O)COCCOCCNC(=O)[C@H](CCCNC(=N)N)NC(=O)CCCCCNC(=O)[C@H](CCCNC(=N)N)NC(=O)[C@H](CCCNC(=N)N)NC(=O)CCCCCNC(=O)[C@H](CCCNC(=N)N)NC(=O)[C@H](CCCNC(=N)N)NC(=O)CCCCCNC(=O)[C@H](CCCNC(=N)N)NC(=O)[C@H](CCCNC(=N)N)NC(=O)CCCCCNC(=O)[C@@H](N)CCCNC(=N)N)C(N)=O)ccn1 [LASP-054] (H-R[Ahx]RR[Ahx]RR[Ahx]RR[Ahx]R[AEEA]K(X1)-NH2)	8	8	9 mm	9	0	9	8 mm		
CINA-PEG-Gly-Lys-Pro-Arg-Pro-Tyr-Ser-Pro-Arg-Pro-Thr-Ser-His-Pro-Arg-Pro-Ile-Arg-Arg-NH2 [LASP-077]	0	0	0 mm	0	0	0	0 mm		
CINA-PEG-Gly-Lys-Pro-Arg-Pro-Tyr-Ser-Pro-Arg-Pro-Thr-Ser-His-Pro-Arg-Pro-Ile-Arg-Arg-NH2 [LASP-084]	0	0	7 mm and 8 mm	0	0	8		greater bacterial growth	
CINA-PEG-Val-Cys ^c -Lys-Arg-trp-Lys-Lys-Trp-Lys-Arg-Lys-Trp-Lys-Lys-Trp-Cys ^c -Val-NH2 (sidechain bridge or staple) [LASP-086, Thioether cross-linked cathelicidin-PNA conjugate of LASP-078 and LASP-050]	0	0	0 mm	0	0	0	0 mm		No zone of bacterial growth inhibition
CINA-PEG-OctGly-Dab-Thr-Dab-Dab ^b -Dab-D-Phe-Leu-Dab-Dab-Thr ^b (lariat or depsi) [LASP-026]	11	13	9 mm	13	14	15	13 mm		
Cys-PEG-OctGly-Dab-Thr-Dab-Dab ^b -Dab-D-Phe-Leu-Dab-Dab-Thr ^b (lariat or depsi) [LASP-130, Conjugate of polymyxin analogue LASP-072 and anti-rpoA PNA LASP-095]	7	9	0 mm	9	9	12	10 mm		11–14 mm
H-Arg-Acp-Arg-Arg-Acp-Arg-Arg-Acp-Arg-Arg-Acp-Arg-PEG-Lys (CINA)-NH2 [LASP-058, Conjugate of RXR peptide LASP-054 and PNA LASP-050 by Cys-CINA linkage]	0	0	0 mm	0	0	0	0 mm		No zone of bacterial growth inhibition
CINA-PEG-Val-Cys ^d -Lys-Arg-trp-Lys-Lys-Trp-Lys-Arg-Lys-Trp-Lys-Lys-Trp-Cys ^d -Val-NH2 (disulfide) [LASP-088]	0	0		0	0	8	7 mm and 8 mm		
